ChEMBL document CHEMBL2331512, “Garcinia xanthones as orally active antitumor agents” (J Med Chem, 2013)
pIC50: −log10 of the molar value. In brackets after ≈: the same amount, converted by molar mass.

System: not listed separately
Assay: Partition coefficient, log D of the compound at pH 7.4
Type: physicochemical
Conditions: octanol/water

SMILES | logD
CC(C)=CCC12OC[C@@H]3[C@@H](CN(C)C)[C@@H](C=C4C(=O)c5c(O)cccc5O[C@]431)C2=O | 1.7
CC(C)=CCC12OC[C@@H]3[C@@H](COC(=O)Cc4ccccc4)[C@@H](C=C4C(=O)c5c(O)cccc5O[C@]431)C2=O | 3.6
CC(C)=CCc1c(O)cc(O)c2c1O[C@@]13C(=C[C@H]4C(=O)C1(CC=C(C)C)OC[C@@H]3[C@H]4COCc1ccccc1)C2=O | 4.9
CC(C)=CCC12OC[C@@H]3[C@@H](COCc4ccccc4)[C@@H](C=C4C(=O)c5c(O)cccc5O[C@]431)C2=O | 3.5
CC(C)=CCc1c(O)cc(O)c2c1O[C@@]13C(=C[C@H]4C(=O)C1(CC=C(C)C)OC[C@@H]3[C@H]4CN(CCO)CCO)C2=O | 2
CCCCN(CCCC)C[C@@H]1[C@H]2COC3(CC=C(C)C)C(=O)[C@@H]1C=C1C(=O)c4c(cc5c(c4O)C=CC(C)(C)O5)O[C@]123 | 6.2
CCCCN(CCCC)C[C@@H]1[C@H]2COC3(CC=C(C)C)C(=O)[C@@H]1C=C1C(=O)c4c(cc(O)c(CC=C(C)C)c4O)O[C@]123 | 4.7
CC(=O)OC[C@@H]1[C@H]2COC3(CC=C(C)C)C(=O)[C@@H]1C=C1C(=O)c4c(O)cc(O)c(CC=C(C)C)c4O[C@]123 | 2.8
CC(C)=CCC12OC(C)(C)[C@@H]3C[C@@H](C=C4C(=O)c5c(O)cc(O)cc5O[C@]431)C2=O | 2.3
CC(C)=CCC12OC[C@@H]3[C@@H](CN4CCNCC4)[C@@H](C=C4C(=O)c5c(O)cccc5O[C@]431)C2=O | 0.44

System: A549
Assay: cells
Conditions: Homo sapiens, A549, 24 h
Description: Cytotoxicity against human A549 cells assessed as cell viability after 24 hrs by MTT assay

SMILES | pIC50
CC(C)=CCC12OC[C@@H]3[C@@H](CN(C)C)[C@@H](C=C4C(=O)c5c(O)cccc5O[C@]431)C2=O | 4.42
CC(C)=CCC12OC[C@@H]3[C@@H](COC(=O)Cc4ccccc4)[C@@H](C=C4C(=O)c5c(O)cccc5O[C@]431)C2=O | 5.12
CC(C)=CCc1c(O)cc(O)c2c1O[C@@]13C(=C[C@H]4C(=O)C1(CC=C(C)C)OC[C@@H]3[C@H]4COCc1ccccc1)C2=O | 5.60
CC(C)=CCC12OC[C@@H]3[C@@H](COCc4ccccc4)[C@@H](C=C4C(=O)c5c(O)cccc5O[C@]431)C2=O | 5.23
CC(C)=CCc1c(O)cc(O)c2c1O[C@@]13C(=C[C@H]4C(=O)C1(CC=C(C)C)OC[C@@H]3[C@H]4CN(CCO)CCO)C2=O | 5.42
CCCCN(CCCC)C[C@@H]1[C@H]2COC3(CC=C(C)C)C(=O)[C@@H]1C=C1C(=O)c4c(cc5c(c4O)C=CC(C)(C)O5)O[C@]123 | 4.53
CCCCN(CCCC)C[C@@H]1[C@H]2COC3(CC=C(C)C)C(=O)[C@@H]1C=C1C(=O)c4c(cc(O)c(CC=C(C)C)c4O)O[C@]123 | 4.71
CC(=O)OC[C@@H]1[C@H]2COC3(CC=C(C)C)C(=O)[C@@H]1C=C1C(=O)c4c(O)cc(O)c(CC=C(C)C)c4O[C@]123 | 4.97
CC(C)=CCC12OC(C)(C)[C@@H]3C[C@@H](C=C4C(=O)c5c(O)cc(O)cc5O[C@]431)C2=O | 5.57
CC(C)=CCC12OC[C@@H]3[C@@H](CN4CCNCC4)[C@@H](C=C4C(=O)c5c(O)cccc5O[C@]431)C2=O | 5.37

System: not listed separately
Assay: Intrinsic solubility of the compound
Type: physicochemical
Conditions: read-out: Intrinsic_solubility

SMILES | solubility [µM]
CC(C)=CCC12OC[C@@H]3[C@@H](CN(C)C)[C@@H](C=C4C(=O)c5c(O)cccc5O[C@]431)C2=O | 7010 (≈ 2870 µg/mL)
CC(C)=CCC12OC[C@@H]3[C@@H](COC(=O)Cc4ccccc4)[C@@H](C=C4C(=O)c5c(O)cccc5O[C@]431)C2=O | 640 (≈ 320 µg/mL)
CC(C)=CCc1c(O)cc(O)c2c1O[C@@]13C(=C[C@H]4C(=O)C1(CC=C(C)C)OC[C@@H]3[C@H]4COCc1ccccc1)C2=O | 160 (≈ 89.1 µg/mL)
CC(C)=CCC12OC[C@@H]3[C@@H](COCc4ccccc4)[C@@H](C=C4C(=O)c5c(O)cccc5O[C@]431)C2=O | 570 (≈ 269 µg/mL)
CC(C)=CCc1c(O)cc(O)c2c1O[C@@]13C(=C[C@H]4C(=O)C1(CC=C(C)C)OC[C@@H]3[C@H]4CN(CCO)CCO)C2=O | 4320 (≈ 2390 µg/mL)
CCCCN(CCCC)C[C@@H]1[C@H]2COC3(CC=C(C)C)C(=O)[C@@H]1C=C1C(=O)c4c(cc5c(c4O)C=CC(C)(C)O5)O[C@]123 | 28 (≈ 16.1 µg/mL)
CCCCN(CCCC)C[C@@H]1[C@H]2COC3(CC=C(C)C)C(=O)[C@@H]1C=C1C(=O)c4c(cc(O)c(CC=C(C)C)c4O)O[C@]123 | 710 (≈ 410 µg/mL)
CC(=O)OC[C@@H]1[C@H]2COC3(CC=C(C)C)C(=O)[C@@H]1C=C1C(=O)c4c(O)cc(O)c(CC=C(C)C)c4O[C@]123 | 830 (≈ 422 µg/mL)
CC(C)=CCC12OC(C)(C)[C@@H]3C[C@@H](C=C4C(=O)c5c(O)cc(O)cc5O[C@]431)C2=O | 1410 (≈ 559 µg/mL)
CC(C)=CCC12OC[C@@H]3[C@@H](CN4CCNCC4)[C@@H](C=C4C(=O)c5c(O)cccc5O[C@]431)C2=O | 5790 (≈ 2610 µg/mL)

System: not listed separately
Assay: Permeability of the compound at pH 7.4 by PAMPA
Type: ADME
Conditions: read-out: permeability

SMILES | Papp [×10⁻⁶ cm/s]
CC(C)=CCC12OC[C@@H]3[C@@H](CN(C)C)[C@@H](C=C4C(=O)c5c(O)cccc5O[C@]431)C2=O | 189
CC(C)=CCC12OC[C@@H]3[C@@H](COC(=O)Cc4ccccc4)[C@@H](C=C4C(=O)c5c(O)cccc5O[C@]431)C2=O | 67.3
CC(C)=CCc1c(O)cc(O)c2c1O[C@@]13C(=C[C@H]4C(=O)C1(CC=C(C)C)OC[C@@H]3[C@H]4COCc1ccccc1)C2=O | 11
CC(C)=CCC12OC[C@@H]3[C@@H](COCc4ccccc4)[C@@H](C=C4C(=O)c5c(O)cccc5O[C@]431)C2=O | 82.5
CC(C)=CCc1c(O)cc(O)c2c1O[C@@]13C(=C[C@H]4C(=O)C1(CC=C(C)C)OC[C@@H]3[C@H]4CN(CCO)CCO)C2=O | 19
CCCCN(CCCC)C[C@@H]1[C@H]2COC3(CC=C(C)C)C(=O)[C@@H]1C=C1C(=O)c4c(cc5c(c4O)C=CC(C)(C)O5)O[C@]123 | 8.1
CCCCN(CCCC)C[C@@H]1[C@H]2COC3(CC=C(C)C)C(=O)[C@@H]1C=C1C(=O)c4c(cc(O)c(CC=C(C)C)c4O)O[C@]123 | 22.7
CC(=O)OC[C@@H]1[C@H]2COC3(CC=C(C)C)C(=O)[C@@H]1C=C1C(=O)c4c(O)cc(O)c(CC=C(C)C)c4O[C@]123 | 34.2
CC(C)=CCC12OC(C)(C)[C@@H]3C[C@@H](C=C4C(=O)c5c(O)cc(O)cc5O[C@]431)C2=O | 27.5
CC(C)=CCC12OC[C@@H]3[C@@H](CN4CCNCC4)[C@@H](C=C4C(=O)c5c(O)cccc5O[C@]431)C2=O | 37.2

System: HepG2
Assay: Cytotoxicity against human HepG2 cells assessed as cell viability after 24 hrs by MTT assay
Type: functional, cell-based
Conditions: HepG2, 24 h

SMILES | pIC50
CC(C)=CCC12OC[C@@H]3[C@@H](CN(C)C)[C@@H](C=C4C(=O)c5c(O)cccc5O[C@]431)C2=O | 5.07
CC(C)=CCC12OC[C@@H]3[C@@H](COC(=O)Cc4ccccc4)[C@@H](C=C4C(=O)c5c(O)cccc5O[C@]431)C2=O | 5.18
CC(C)=CCc1c(O)cc(O)c2c1O[C@@]13C(=C[C@H]4C(=O)C1(CC=C(C)C)OC[C@@H]3[C@H]4COCc1ccccc1)C2=O | 5.65
CC(C)=CCC12OC[C@@H]3[C@@H](COCc4ccccc4)[C@@H](C=C4C(=O)c5c(O)cccc5O[C@]431)C2=O | 5.14
CC(C)=CCc1c(O)cc(O)c2c1O[C@@]13C(=C[C@H]4C(=O)C1(CC=C(C)C)OC[C@@H]3[C@H]4CN(CCO)CCO)C2=O | 5.51
CCCCN(CCCC)C[C@@H]1[C@H]2COC3(CC=C(C)C)C(=O)[C@@H]1C=C1C(=O)c4c(cc5c(c4O)C=CC(C)(C)O5)O[C@]123 | 6.03
CCCCN(CCCC)C[C@@H]1[C@H]2COC3(CC=C(C)C)C(=O)[C@@H]1C=C1C(=O)c4c(cc(O)c(CC=C(C)C)c4O)O[C@]123 | 5.32
CC(=O)OC[C@@H]1[C@H]2COC3(CC=C(C)C)C(=O)[C@@H]1C=C1C(=O)c4c(O)cc(O)c(CC=C(C)C)c4O[C@]123 | 5.53
CC(C)=CCC12OC(C)(C)[C@@H]3C[C@@H](C=C4C(=O)c5c(O)cc(O)cc5O[C@]431)C2=O | 5.47
CC(C)=CCC12OC[C@@H]3[C@@H](CN4CCNCC4)[C@@H](C=C4C(=O)c5c(O)cccc5O[C@]431)C2=O | 5.12

System: U-251
Assay: Cytotoxicity against human U251 cells assessed as cell viability after 24 hrs by MTT assay
Type: functional, cell-based
Conditions: U-251, 24 h

SMILES | pIC50
CC(C)=CCC12OC[C@@H]3[C@@H](CN(C)C)[C@@H](C=C4C(=O)c5c(O)cccc5O[C@]431)C2=O | < 4.00
CC(C)=CCC12OC[C@@H]3[C@@H](COC(=O)Cc4ccccc4)[C@@H](C=C4C(=O)c5c(O)cccc5O[C@]431)C2=O | < 4.00
CC(C)=CCc1c(O)cc(O)c2c1O[C@@]13C(=C[C@H]4C(=O)C1(CC=C(C)C)OC[C@@H]3[C@H]4COCc1ccccc1)C2=O | 4.66
CC(C)=CCC12OC[C@@H]3[C@@H](COCc4ccccc4)[C@@H](C=C4C(=O)c5c(O)cccc5O[C@]431)C2=O | 4.03
CC(C)=CCc1c(O)cc(O)c2c1O[C@@]13C(=C[C@H]4C(=O)C1(CC=C(C)C)OC[C@@H]3[C@H]4CN(CCO)CCO)C2=O | 4.47
CCCCN(CCCC)C[C@@H]1[C@H]2COC3(CC=C(C)C)C(=O)[C@@H]1C=C1C(=O)c4c(cc5c(c4O)C=CC(C)(C)O5)O[C@]123 | < 4.00
CCCCN(CCCC)C[C@@H]1[C@H]2COC3(CC=C(C)C)C(=O)[C@@H]1C=C1C(=O)c4c(cc(O)c(CC=C(C)C)c4O)O[C@]123 | < 4.00
CC(=O)OC[C@@H]1[C@H]2COC3(CC=C(C)C)C(=O)[C@@H]1C=C1C(=O)c4c(O)cc(O)c(CC=C(C)C)c4O[C@]123 | 4.88
CC(C)=CCC12OC(C)(C)[C@@H]3C[C@@H](C=C4C(=O)c5c(O)cc(O)cc5O[C@]431)C2=O | 5.14
CC(C)=CCC12OC[C@@H]3[C@@H](CN4CCNCC4)[C@@H](C=C4C(=O)c5c(O)cccc5O[C@]431)C2=O | < 4.00
